{"source": "patent US5256690A", "about": "“Method for treating and controlling the symptoms of neurodegenerative disease and neuropsychopharmacological disorders” (Carter-Wallace, Inc., priority 1992, dated 1993)", "key": {"[1]": {"target": "T1, strychnine-insensitive glycine receptors (Rattus norvegicus, UniProt P35439)", "T1 construct": "Brains are immediately removed and forebrains dissected; from tissue; host or cells: rat forebrain membranes (P2/P3 pellet, washed, frozen), male Sprague-Dawley", "test": "biochemical", "type": "binding", "description": "Male Sprague-Dawley rats weighing 150-200 g are housed under a 12-hour light/dark cycle with access to food and water ad libitum. Animals are anesthetized with CO2 and sacrificed by decapitation. Brains are immediately removed and forebrains dissected, weighed and placed in 10 volumes (original wet weight volume) of 5 mM Hepes/4.5 mM Tris buffer (HTS; pH 7.8) containing 0.32 M sucrose. Tissue preparation is performed at about 4° C unless otherwise stated. Tissues are homogenized using a Brinkmann Polytron (setting 6, 30 seconds), diluted to 50 volumes in HTS-sucrose, and centrifuged at 1,000 xg for 10 minutes. The resultant pellet (P1) is discarded and supernatant centrifuged at 20,000 xg for 20 minutes. The resultant pellet (P2) is resuspended in HTS and centrifuged at 8,000 xg for 20 minutes. The supernatant and outer buffy coat (remaining pellet core discarded) is centrifuged at 20,000 xg for 20 minutes. The resultant pellet (P2/P3) is resuspended in HTS containing 1 mM EDTA and centrifuged at 20,000 xg for 20 minutes. The P2/P3 pellet is resuspended in HTS and the \"washing\" procedure is repeated two more times. The P2/P3 pellet is then resuspended in 5 volumes of HTS, frozen on dry-ice and stored at -80° C. for at least 72 hours prior to binding assay.\nAt the time of the assay, the appropriate amount of tissue is thawed and resuspended in 50 mM Hepes-KOH buffer (pH 8.0 at 4° C.) and \"washed\" twice by resuspension and centrifugation at 20,000 xg for 20 minutes. The binding of [^3 H]5,7DCKA is performed as described by Baron et al. Env. J. Pharmacol 206: 149-154 (1991). Assays are performed at 4° C. using quadruplicate samples in a total volume/tube of 1-ml consisting of: 500 ul membrane suspension (200-300 ug protein/assay tube) in 50 mM Hepes-KOH buffer (pH 8.0 at 4° C.), 100 ul [^3 H]5,7DCKA solution (19-21 nM; specific activity 18.2 Ci/mmol), 100 ul drug or buffer, and 300 ul buffer. […] Felbamate, solutions of 10 mM and 100 mM, are dissolved in 40-50% and 100% DMSO, respectively, and serial dilutions are performed. Binding reactions are initiated by adding the tissue homogenate and terminated after a 15 minute incubation period by rapid filtration through Brandel GF/B filters using a Brandel M-24 cell harvester. This filtration is followed by two 5-ml rinses with ice-cold buffer. Radioactivity is monitored in a Beckman LS 5801 liquid scintillation counter.\nDisplacement curves and IC50 values were analyzed using Graphpad (ISI Software, Philadelphia, Pa.)."}, "hippocampal slices": {"tested_on": "hippocampal slices", "test": "Hippocampal slice hypoxia model (evoked potential recovery)", "type": "cell-based, rat", "details": "for evoked potential (population spike) recovery: after one hour recovery", "description": "Sprague-Dawley rats are briefly anesthetized with Halothane and then decapitated. The brain is removed and the hippocampus dissected. Transverse hippocampal brain slices of 475 microns are sectioned with a McIlwain tissue chopper. Slices are then incubated in a temperature controlled chamber of 34 degrees centigrade while being perfused with an artificial cerebral spinal fluid (NaCl 126 mM; KCl, 4; KH2 PO4, 1.4; MgSO4, 1.3; CaCl2, 2.4; NaHCO3, 26 and glucose, 4) saturated with 95% O2 and 5% CO2.\nAfter an initial one hour equilibration period, the slices are tested for electrophysiological function. Electrical stimulation is given in the region of the CA3 collaterals with a bipolar twisted wire electrode. Evoked responses are recorded extracellularly in the pyramidal cell layer of the CA1 region. Stimulation is given for a duration of 40 microseconds in square wave pulses. The peak-to-peak amplitude of the resultant evoked potential response is then monitored.\nHippocampal slices from one animal are placed in two chambers. One chamber is used as a control and receives standard artificial cerebral spinal fluid (ACSF) while the second receives felbamate. In each chamber, one slice is stimulated every 30 seconds to monitor evoked potential response. Other slices in the chamber are not continuously stimulated. In these latter slices, designated as non-stimulated, the evoked potential response is assessed only at the beginning and end of the experiment. Only slices with initial evoked potentials of 3 mV or greater amplitude are included for testing.\nThe experimental chamber is perfused with oxygenated artificial cerebral spinal fluid (ACSF) containing felbamate for 30 minutes before the initiation of hypoxic conditions. The control chamber continues to receive oxygenated ACSF without felbamate during this period. Hypoxic conditions are then initiated simultaneously in both chambers by changing to perfusing media saturated with 95% N2 and 5% CO2. The experimental chamber receives nitrogenated ACSF with felbamate while the control chamber receives nitrogenated ACSF without felbamate.\nThe duration of hypoxic exposure for both chambers is determined by the disappearance of the hypoxic injury potential (HIP) in the control stimulated slice. This potential appears during hypoxia after the disappearance of the original evoked potential. Although hippocampal slices can vary in their temporal response to hypoxia, the HIP is a reliable marker of permanent hypoxic injury. For this reason, the disappearance of the HIP is chosen to determine length of hypoxic exposure. Hypoxia is continued in both chambers for 5 minutes beyond the disappearance of the HIP in the stimulated control slice.\nAfter hypoxic exposure, slices are monitored through one hour of recovery with oxygenated ACSF. The felbamate chamber receives oxygenated ACSF with felbamate for the first 15 minutes of this recovery and then standard oxygenated ACSF for the remaining 45 minutes of recovery. After a one-hour recovery period, the percentage of evoked potential amplitude recovery is assessed in both stimulated and non-stimulated slices. This percentage is calculated as the evoked potential amplitude after recovery divided by the evoked potential amplitude prior to hypoxic exposure.\nThis protective action is assessed by several measures. First, evoked potential recovery is assessed in both stimulated and non-stimulated slices. Additionally, hypoxic protection is calculated for both stimulated and non-stimulated slices. This measure is calculated as the damage seen in control slices minus the damage seen in experimental (felbamate) slices divided by the damage seen in control slices. For these purposes damage is defined as 100 percent minus percent recovery. The determination of hypoxic protection helps take into account any survival seen in control slices. Lastly, counts of total surviving slices were made. […]"}, "[2]": {"test": "Preclinical margin of safety (protective index)", "type": "in vivo", "details": "preclinical profile"}, "MES": {"tested_on": "MES", "details": "rats; cited from earlier work"}, "metrazol": {"tested_on": "metrazol", "details": "rats; cited from earlier work"}, "[3]": {"target": "T1, strychnine-insensitive glycine receptors", "details": "value used in the K calculation; read-out: dissociation constant KD of [3H]5,7DCKA; cited from earlier work"}}}
{"smiles": "NC(=O)OCC(COC(N)=O)c1ccccc1", "note": "[felbamate, 2-phenyl-1,3-propanediol dicarbamate]", "values": [{"measurement": "IC50", "setting": "[1]; IC50, inhibition of [3H]5,7DCKA, 10 uM-10 mM, combined data of three experiments on a single graph, FIG. 2", "result": 374, "unit": "µM"}, {"measurement": "IC50", "setting": "[1]; IC50 value (mean +/- SEM), mean of the felbamate displacement experiments", "result": "477 ± 49", "unit": "µM"}, {"measurement": "Ki", "setting": "[1]; K estimate for inhibition of [3H]5,7DCKA (mean +/- SEM), calculated, mean of experiments, FIG. 2", "result": "368 ± 37", "unit": "µM"}, {"measurement": "Ki", "setting": "[1]; K estimate for inhibition of [3H]5,7DCKA, calculated from IC50 of combined data", "result": 289, "unit": "µM"}, {"measurement": "Hill slope", "setting": "[1]; combined displacement data, FIG. 2", "result": -0.93}, {"measurement": "mode of inhibition of [3H]5,7DCKA binding", "setting": "[1]; rat forebrain membranes, FIG. 2", "result": "competitively inhibits"}, {"measurement": "neuroprotection against hypoxia", "setting": "hippocampal slices; 380 uM, 840 uM, 1,300 uM and 1,700 uM", "result": "Significant neuroprotection"}, {"measurement": "counts of surviving stimulated slices", "setting": "hippocampal slices; 1,300 and 1,700 uM, survival criterion 3 mV", "result": "substantial felbamate protection"}, {"measurement": "toxicity for electrophysiological function", "setting": "hippocampal slices; high concentration of felbamate", "result": "no evidence of toxicity"}, {"measurement": "toxicity (permanent evoked potential loss)", "setting": "hippocampal slices; pre-hypoxic incubation, felbamate perfusion", "result": "no evidence of toxicity"}, {"measurement": "evoked potential (population spike) recovery", "setting": "hippocampal slices; stimulated slices, 4 uM", "result": 2, "unit": "%"}, {"measurement": "evoked potential (population spike) recovery", "setting": "hippocampal slices; stimulated slices, 190 uM", "result": 6, "unit": "%"}, {"measurement": "evoked potential (population spike) recovery", "setting": "hippocampal slices; stimulated slices, 380 uM", "result": 13, "unit": "%"}, {"measurement": "evoked potential (population spike) recovery", "setting": "hippocampal slices; stimulated slices, 840 uM", "result": 46, "unit": "%"}, {"measurement": "evoked potential (population spike) recovery", "setting": "hippocampal slices; stimulated slices, 1,300 uM", "result": 95, "unit": "%"}, {"measurement": "delay of appearance of the hypoxic injury potential (HIP)", "setting": "hippocampal slices; stimulated slices, 1,700 uM", "result": 14.5, "unit": "min"}, {"measurement": "evoked potential (population spike) recovery", "setting": "hippocampal slices; stimulated slices, 1,700 uM", "result": 96, "unit": "%"}, {"measurement": "effect on disappearance of the evoked potential", "setting": "hippocampal slices; stimulated slices, 1,700 uM, hypoxia", "result": "did not affect"}, {"measurement": "counts of surviving non-stimulated slices", "setting": "hippocampal slices; survival criterion 3 mV", "result": "substantial protection"}, {"measurement": "protective index", "setting": "[2]", "result": "16.9-19.1"}, {"measurement": "anticonvulsant ED50 for MES", "setting": "MES", "result": 46, "unit": "mg/kg"}, {"measurement": "anticonvulsant ED50 for metrazol", "setting": "metrazol", "result": 238, "unit": "mg/kg"}]}
{"smiles": "O=C(O)c1cc(O)c2c(Cl)cc(Cl)cc2n1", "note": "[[^3 H]5,7DCKA, [^3 H]5,7-dichlorokynurenic acid]", "values": [{"measurement": "Kd", "setting": "[3]", "result": 69, "unit": "nM"}]}
